Measurements published in patent publication US6191145A, “Orally-active nipecotamide glycolamide esters for the treatment of thrombosis disorders” (Ortho-McNeil Pharmaceutical, Inc., priority 1999, dated 2001).
Counter-ions that a name gives are not always drawn.

Tests used:
[1] = system: collagen-induced ex vivo platelet aggregation; assay: Ex vivo dog study: duration of >50% inhibition of collagen-induced ex vivo platelet aggregation; format: in vivo
Protocol: Adult mongrel dogs (8-13 kg) were anesthetized with sodium pentobarbital (35 mg/kg, i.v.) and artificially respired. Arterial blood pressure and heart rate were measured using a Millar catheter-tip pressure transducer inserted in a femoral artery. Another Millar transducer was placed in the left ventricle (LV) via a carotid artery to measure LV end diastolic pressure and indices of myocardial contractility. A lead II electrocardiogram was recorded from limb electrodes. Catheters were placed in a femoral artery and vein to sample blood and infuse drugs, respectively. Responses were continuously monitored using a Modular Instruments data aquisition system.
Arterial blood samples (5-9 ml) were withdrawn into tubes containing 3.8% sodium citrate to prepare platelet rich plasma (PRP) and to determine effects on coagulation parameters: prothrombin time (PT) and activated partial thromboplastin time (APTT). Separate blood samples (1.5 ml) were withdrawn in EDTA to determine hematocrit and cell counts (platelets, RBC's and white cells). Template bleeding times were obtained from the buccal surface using a symplate incision devise and Whatman filter paper.
Aggregation of PRP was performed using a BioData aggregometer. Aggregation of whole blood used a Chronolog impedance aggregometer. PT and APTT were determined on either a BioData or ACL 3000+ coagulation analyser. Cells were counted with a Sysmex K-1000.
Compounds were solubilized in a small volume of dimethylformamide (DMF) and diluted with saline to a final concentration of 10% DMF. Compounds were administered by the intravenous route with a Harvard infusion pump. Doses was administered over a 15 min interval at a constant rate of 0.33 ml/min. Data were obtained after each dose and in 30 min intervals following the end of drug administration. Oral doses were administered as aqueous solutions via syringe.

[2] = system: Thrombin-induced aggregation of gel-filtered platelets; assay: In vitro inhibition of thrombin-induced gel-filtered platelet aggregation; format: cell-based; details: Homo sapiens; for inhibition at 50 µM: read-out: Platelet Aggregation % Inh. (50 μM)
Protocol: The percentage of platelet aggregation is calculated as an increase in light transmission of compound-treated platelet concentrate vs. control-treated platelet concentrate. Human blood is obtained from drug free, normal donors into tubes containing 0.13M sodium citrate. Platelet rich plasma (PRP) is collected by centrifugation of whole blood at 200×g for 10 min at 25° C. The PRP (5 mL) is gel filtered through Sepharose 2B (bed volume 50 mL), and the platelet count is adjusted to 2×10^7 platelets per sample. The following constituents are added to a siliconized cuvette: concentrated platelet filtrate and Tyrode's buffer (0.14M NaCl, 0.0027M KCl, 0.012M NaHCO3,0.76 mM Na2 HPO4, 0.0055M glucose, 2 mg/mL BSA and 5.0 mM HEPES @ pH 7.4) in an amount equal to 350 μl, 50 μl of 20 mM calcium and 50 μl of the test compound. Aggregation is monitored in a BIODATA aggregometer for the 3 min following the addition of agonist (thrombin 50 μl of 1 unit/mL).

[3] = biological target: GPIIb/IIIa (Homo sapiens, UniProt P05106+P08514); assay: In vitro solid phase purified glycoprotein IIb/IIIa binding assay (fibrinogen binding); details: for inhibition at 50 µM: read-out: Fibrinogen Binding % Inh. (50 μM)
Sequence of GPIIb/IIIa (P08514 32-887 limits assumed): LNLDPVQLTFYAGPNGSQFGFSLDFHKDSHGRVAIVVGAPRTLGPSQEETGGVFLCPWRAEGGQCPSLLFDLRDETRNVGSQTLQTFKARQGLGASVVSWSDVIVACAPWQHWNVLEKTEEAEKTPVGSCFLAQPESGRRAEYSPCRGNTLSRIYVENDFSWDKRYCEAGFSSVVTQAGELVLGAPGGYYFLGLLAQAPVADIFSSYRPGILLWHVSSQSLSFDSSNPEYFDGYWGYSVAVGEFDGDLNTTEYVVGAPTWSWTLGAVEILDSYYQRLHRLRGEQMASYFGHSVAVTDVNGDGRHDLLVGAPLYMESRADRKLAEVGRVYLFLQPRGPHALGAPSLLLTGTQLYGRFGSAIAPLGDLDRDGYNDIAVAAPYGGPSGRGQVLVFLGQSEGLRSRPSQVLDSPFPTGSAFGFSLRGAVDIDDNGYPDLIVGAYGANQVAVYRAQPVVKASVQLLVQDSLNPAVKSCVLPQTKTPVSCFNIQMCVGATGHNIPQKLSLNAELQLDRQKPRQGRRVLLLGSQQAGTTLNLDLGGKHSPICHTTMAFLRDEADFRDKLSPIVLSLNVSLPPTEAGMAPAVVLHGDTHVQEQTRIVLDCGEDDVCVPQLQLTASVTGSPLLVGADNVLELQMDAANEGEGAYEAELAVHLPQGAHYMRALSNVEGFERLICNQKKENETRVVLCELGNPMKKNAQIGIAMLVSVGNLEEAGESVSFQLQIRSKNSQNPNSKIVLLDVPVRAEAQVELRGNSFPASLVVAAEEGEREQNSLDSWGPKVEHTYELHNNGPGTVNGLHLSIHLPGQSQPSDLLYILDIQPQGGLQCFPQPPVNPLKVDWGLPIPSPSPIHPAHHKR
Sequence of GPIIb/IIIa (P08514 891-1039 limits assumed): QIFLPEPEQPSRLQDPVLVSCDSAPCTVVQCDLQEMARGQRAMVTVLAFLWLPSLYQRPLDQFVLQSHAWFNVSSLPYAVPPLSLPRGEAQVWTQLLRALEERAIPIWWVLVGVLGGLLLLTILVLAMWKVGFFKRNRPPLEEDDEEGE
Sequence of GPIIb/IIIa (P05106 27-788): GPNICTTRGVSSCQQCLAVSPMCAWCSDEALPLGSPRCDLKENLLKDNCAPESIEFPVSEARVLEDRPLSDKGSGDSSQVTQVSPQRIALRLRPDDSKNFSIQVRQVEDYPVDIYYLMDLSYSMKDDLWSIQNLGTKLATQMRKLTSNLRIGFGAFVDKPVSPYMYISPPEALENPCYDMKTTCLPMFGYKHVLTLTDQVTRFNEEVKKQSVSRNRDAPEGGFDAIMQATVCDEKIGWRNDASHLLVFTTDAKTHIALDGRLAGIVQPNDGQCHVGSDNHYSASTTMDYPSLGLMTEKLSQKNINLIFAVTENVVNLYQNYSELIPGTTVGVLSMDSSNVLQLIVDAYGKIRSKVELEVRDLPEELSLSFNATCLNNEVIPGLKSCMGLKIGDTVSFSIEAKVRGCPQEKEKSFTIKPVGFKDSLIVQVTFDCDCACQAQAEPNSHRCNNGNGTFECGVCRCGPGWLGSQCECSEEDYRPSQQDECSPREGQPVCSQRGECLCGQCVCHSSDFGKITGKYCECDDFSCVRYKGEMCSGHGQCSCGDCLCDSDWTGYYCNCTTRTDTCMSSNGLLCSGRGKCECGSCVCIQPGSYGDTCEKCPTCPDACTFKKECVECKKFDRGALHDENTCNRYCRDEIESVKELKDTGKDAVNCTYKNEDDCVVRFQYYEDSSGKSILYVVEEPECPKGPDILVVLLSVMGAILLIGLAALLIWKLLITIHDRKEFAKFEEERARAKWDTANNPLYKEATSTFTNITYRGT
Protocol: The plate is covered and incubated overnight at 4° C. The GPIIb/IIa solution is discarded and 150 μl of 5% BSA is added and incubated at RT for 1-3 h. The plate is washed extensively with modified Tyrodes buffer. Biotinylated fibrinogen (25 μl/well) at 2×final concentration is added to the wells that contain the test compounds (25 μl/well). The plate is covered and incubated at RT for 2-4 h. Twenty minutes prior to incubation completion, one drop of Reagent A (Vecta Stain ABC Horse Radish Peroxidase kit, Vector Laboratories, Inc.) and one drop Reagent B are added with mixing to 5 mL modified Tyrodes buffer mix and let stand. The ligand solution is discarded and the plate washed (5×200 μl/well) with modified Tyrodes buffer. Vecta Stain HRP-Biotin-Avidin reagent (50 μl/well, as prepared above) is added and incubated at RT for 15 min. The Vecta Stain solution is discarded and the wells washed (5×200 μl/well) with modified Tyrodes buffer. Developing buffer (10 mL of 50 mM citrate/phosphate buffer @ pH 5.3, 6 mg 2-phenylenediamine, 6 μl 30% H2 O2; 50 μl/well) is added and incubated at RT for 3-5 min, and then 2N H2 SO4 (50 μl/well) is added. The absorbance is read at 490 nm.

[4] = system: thrombin-induced platelet aggregation; details: L. Alig, J. Med. Chem. 1992, 35, 4393; read-out: IC50 against in vitro thrombin-induced platelet aggregation; cited from earlier work

Compound | IC50 [2] [µM] | IC50 [3] [µM] | inhibition at 50 µM [3] [%] | Duration of >50% inhibition of collagen-induced ex vivo platelet aggregation, oral dosing ([1]; 3 mpk) [min] | inhibition at 50 µM [2] [%] | Duration of >50% inhibition of collagen-induced ex vivo platelet aggregation, intravenous dosing ([1]; 0.3 mpk) [min] | Duration of >50% inhibition of collagen-induced ex vivo platelet aggregation, intravenous dosing ([1]; 0.1 mpk) [min] | Duration of >50% inhibition of collagen-induced ex vivo platelet aggregation, oral dosing ([1]; 1 mpk) [min] | IC50 [4] [µM] | Duration of >50% inhibition of collagen-induced ex vivo platelet aggregation, intravenous dosing ([1]; 1.0 mpk) [min]
O=C(N[C@@H](CNC(=O)[C@@H]1CCCN(C(=O)CCC2CCNCC2)C1)C(=O)O)OCc1ccccc1 [carboxylic acid congener, reference compound] |  |  |  | 180 |  |  |  |  |  | 
CCN(CC)C(=O)COC(=O)C[C@H](NC(=O)[C@@H]1CCCN(C(=O)CCC2CCNCC2)C1)c1cccnc1 [Compound 1, N-3-(4-Piperidinepropionyl)-R-(-)-nipecotyl-[(S)-3-amino-3-(3-pyridyl)]propionic acid 2-(Diethylamino)-2-oxoethyl ester.2HCl] | 0.14 | 0.0007 | 100 | > 180 | 100 | 60 |  |  |  | 
CN(CC(=O)c1ccc(OCC(=O)O)c(OCC(=O)O)c1)C(=O)c1ccc(C(=N)N)cc1 [Ro-438857] |  |  |  |  |  |  |  |  | 0.094 | 
CCN(CC)C(=O)COC(=O)C[C@H](NC(=O)[C@@H]1CCCN(C(=O)CCC2CCNCC2)C1)c1cncc(Br)c1 [Compound 3] | 0.19 | 0.0009 | 100 | 90 | 100 |  |  |  |  | 
CCN(CC)C(=O)COC(=O)C[C@H](NC(=O)[C@@H]1CCCN(C(=O)CCC2CCNCC2)C1)c1ccc2c(c1)OCO2 [Compound 2] | 1.1 | 0.005 | 100 | 150 | 100 |  |  |  |  | 120

Second part, led by results:

IC50 [2] [µM] | IC50 [3] [µM] | inhibition at 50 µM [3] [%] | Compound | Duration of >50% inhibition of collagen-induced ex vivo platelet aggregation, oral dosing ([1]; 3 mpk) [min] | inhibition at 50 µM [2] [%] | Duration of >50% inhibition of collagen-induced ex vivo platelet aggregation, intravenous dosing ([1]; 0.3 mpk) [min] | Duration of >50% inhibition of collagen-induced ex vivo platelet aggregation, intravenous dosing ([1]; 0.1 mpk) [min] | Duration of >50% inhibition of collagen-induced ex vivo platelet aggregation, oral dosing ([1]; 1 mpk) [min] | IC50 [4] [µM] | Duration of >50% inhibition of collagen-induced ex vivo platelet aggregation, intravenous dosing ([1]; 1.0 mpk) [min]
0.29 | 0.002 | 100 | CCN(CC)C(=O)COC(=O)[C@H](CNC(=O)[C@@H]1CCCN(C(=O)CCC2CCNCC2)C1)NC(=O)OCc1ccccc1 [Compound 4, N-3-(4-Piperidinepropionyl)-R-(-)nipecotyl-[(S)-2-benzyloxycarbonylamino-3-amino]propionic acid 2-(Diethylamino)-2-oxoethyl ester.HCl] | > 240 | 100 |  | 60 |  |  | 
0.51 | 0.0025 | 100 | O=C(N[C@@H](CNC(=O)[C@@H]1CCCN(C(=O)/C=C/C2CCNCC2)C1)C(=O)OCC(=O)N1CCCCC1)OCc1ccccc1 [Compound 6, N-3-(4-Piperidinepropenoyl)-R-(-)nipecotyl-[(S)-2-benzyloxycarbonylamino-3-amino]propionic acid 2-(Piperidino)-2-oxoethyl ester.HCl] |  | 100 |  |  | 150 |  | 
0.27 | 0.0097 | 100 | CCN(CC)C(=O)COC(=O)[C@H](CNC(=O)[C@@H]1CCCN(C(=O)/C=C/C2CCNCC2)C1)NC(=O)OCc1ccccc1 [Compound 5, N-3-(4-Piperidinepropenoyl)-R-(-)nipecotyl-[(S)-2-benzyloxycarbonylamino-3-amino]propionic acid 2-(Diethylamino)-2-oxoethyl ester.HCl] |  | 100 |  | 60 | > 240 |  | 
